Test results: US9447083B2, “N-acylhydrazone derivatives for selective T cell inhibitor and anti-lymphoid malignancy drug” (CHONG KUN DANG PHARMACEUTICAL CORP., priority 2012, dated 2016)

Each compound was assayed on Jurkat T cells (assay: Pro-apoptotic activity on Jurkat T cells (FITC-Annexin V / 7-AAD flow cytometry)). Conditions: Homo sapiens, 72 hours, cells stained with FITC-Annexin V and 7-AAD among total cells, read-out: Cell Apoptosis Effect to Jurkat T Cell (% in 5 μM).
Assay type: cell-based
Method: In order to investigate the effects of the prepared compounds, the apoptosis-inducing effects of the compounds on human T cell acute lymphoblastic leukemia cell line, Jurkat T cells, were evaluated in the following manner.
Jurkat T cells cultured in RPMI medium containing 10% fetal bovine serum (FBS) were collected and stained with trypan blue (Sigma). […] Then, the cells were centrifuged at 1200 rpm at room temperature for 5 minutes and re-suspended in 10% FBS-containing RPMI medium at a concentration of 1.5×10^5 cells/mL. 200 μL of the cell suspension was dispensed into each well of a flat bottom 96-well plate (Costar). Then, the cells were treated with 10 μL of the diluted compounds in RPMI medium at final concentrations of […] or 5 μM, and incubated in a 5% CO2 incubator at 37° C. for 72 hours. In a vehicle control group, the cells were treated with 10 μL of RPMI medium containing 1% of dimetylsulfoxide (DMSO, Sigma). The incubated cells were harvested, put into 5-mL FACS tubes (BD Falcon), washed with 1 mL of phosphate buffered saline (PBS), and then re-suspended in 0.1 mL of binding buffer (10 mM Hepes-NaOH, pH 7.4, 140 mM NaCl, […] CaCl2). The suspended cells were stained with fluorescein isothiocyanate (FITC)-Annexin V (BD Biosciences) and 7-amino-actinomycin D (7-AAD, e-Biosciences) at room temperature for 15 minutes. The stained cells were suspended in 0.3 mL of binding buffer and analyzed by a flow cytometer. Apoptosis was determined by the ratio (%) of cells stained with FITC-Annexin V and 7-AAD among the total cells (see Tables 10 and 11).

Row | SMILES | cytotoxicity at 5 µM
1 | Cc1ccccc1OCC(=O)N/N=C/c1cccc2[nH]ccc12 [Compound 013, (E)-N′-((1H-indol-4-yl)methylene)-2-(o-tosyloxy)acetohydrazide] | 100%
2 | Cc1ccccc1OCC(=O)N/N=C/c1ccc2[nH]ccc2c1 [Compound 014] | 100%
3 | Cc1ccccc1OCC(=O)N/N=C/c1ccc2cc[nH]c2c1 [Compound 034] | 90%
4 | Cc1ccccc1OCC(=O)N/N=C/c1ccc2c(ccn2CN(C)C)c1 [Compound 072] | 95%
5 | Cc1cc(Br)cc(C)c1OCC(=O)N/N=C/c1ccc2[nH]ccc2c1 [Compound 092, (E)-N′-((1H-indol-5-yl)methylene)-2-(4-bromo-2,6-dimethylphenoxy)acetohydrazide] | 100%
6 | Cc1ccccc1OCC(=O)N/N=C/c1ccc2[nH]cnc2c1 [Compound 100] | 90%
7 | Cc1cc(C)c(OCC(=O)N/N=C/c2cc3ccccc3[nH]2)c(C)c1 [Compound 109, (E)-N′-((1H-indol-2-yl)methylene)-2-(mesityloxy)acetohydrazide] | 100%
8 | Cc1cc(Br)cc(C)c1OCC(=O)N/N=C/c1cccc2[nH]ccc12 [Compound 112, (E)-N′-((1H-indol-4-yl)methylene)-2-(4-bromo-2,6-dimethylphenoxy)acetohydrazide] | 100%
9 | Cc1cccc(C)c1OCC(=O)N/N=C/c1cccc2[nH]ccc12 [Compound 118, (E)-N′-((1H-indol-4-yl)methylene)-2-(2,6-dimethylphenoxy)acetohydrazide] | 100%
10 | CC(C)c1cccc(C(C)C)c1OCC(=O)N/N=C/c1cccc2[nH]ccc12 [Compound 121, (E)-N′-((1H-indol-4-yl)methylene)-2-(2,6-diisopropylphenoxy)acetohydrazide] | 100%
11 | Cc1cc(C(C)(C)C)c(OCC(=O)N/N=C/c2cccc3[nH]ccc23)c(C(C)(C)C)c1 [Compound 127, (E)-N′-((1H-indol-4-yl)methylene)-2-(2,6-di-tert-butyl-4-methylphenoxy)acetohydrazide] | 100%
12 | Cc1cc(Br)cc(C)c1OCC(=O)N/N=C/c1ccc2cc[nH]c2c1 [Compound 133, (E)-N′-((1H-indol-6-yl)methylene)-2-(4-bromo-2,6-dimethylphenoxy)acetohydrazide] | 100%
13 | Cc1cc(C)c(NCC(=O)N/N=C/c2cccc3[nH]ccc23)c(C)c1 [Compound 135, (E)-N′-((1H-indol-4-yl)methylene)-2-(mesitylamino)acetohydrazide] | 100%
14 | Cc1cc(C)c(NCC(=O)N/N=C/c2c[nH]c3ccccc23)c(C)c1 [Compound 136] | 100%
15 | Cc1cc(-c2cccnc2)cc(C)c1OCC(=O)N/N=C/c1cccc2[nH]ccc12 [Compound 137, (E)-N′-((1H-indol-4-yl)methylene)-2-(2,6-dimethyl-4-(pyridin-3-yl)phenoxy)acetohydrazide] | 100%
16 | Cc1cc(-c2cccnc2)cc(C)c1OCC(=O)N/N=C/c1c[nH]c2ccccc12 [Compound 138] | 90%
17 | Cc1cc(-c2cccnc2)cc(C)c1OCC(=O)N/N=C/c1ccc2cc[nH]c2c1 [Compound 139, (E)-N′-((1H-indol-6-yl)methylene)-2-(2,6-dimethyl-4-(pyridin-3-yl)phenoxy)acetohydrazide] | 100%

Row | SMILES | cytotoxicity at 5 µM
18 | O=C(COc1ccccc1-c1cccnc1)N/N=C/c1cccc2[nH]ccc12 [Compound 146, (E)-N′-((1H-indol-4-yl)methylene)-2-(2-(pyridin-3-yl)phenoxy)acetohydrazide] | 100%
19 | Cc1cc(C)c(SCC(=O)N/N=C/c2cccc3[nH]ccc23)c(C)c1 [Compound 147, (E)-N′-((1H-indol-4-yl)methylene)-2-(mesitylthio)acetohydrazide] | 100%
20 | Cc1cc(-c2cncnc2)cc(C)c1OCC(=O)N/N=C/c1cccc2[nH]ccc12 [Compound 149, (E)-N′-((1H-indol-4-yl)methylene)-2-(2,6-dimethyl-4-(pyrimidin-5-yl)phenoxy)acetohydrazide] | 100%
21 | Cc1cc(-c2cnc(N)nc2)cc(C)c1OCC(=O)N/N=C/c1ccc2cc[nH]c2c1 [Compound 152, (E)-N′-((1H-indol-6-yl)methylene)-2-(4-(2-aminopyrimidin-5-yl)-2,6-dimethylphenoxy)acetohydrazide] | 90%
22 | Cc1cc(Cl)cc(C)c1OCC(=O)N/N=C/c1cccc2[nH]ccc12 [Compound 155, (E)-N′-((1H-indol-4-yl)methylene)-2-(4-chloro-2,6-dimethylphenoxy)acetohydrazide] | 100%
23 | Cc1cc(Cl)cc(C)c1OCC(=O)N/N=C/c1c[nH]c2ccccc12 [Compound 156, (E)-N′-((1H-indol-3-yl)methylene)-2-(4-chloro-2,6-dimethylphenoxy)acetohydrazide] | 90%
24 | Cc1cc(Cl)cc(C)c1OCC(=O)N/N=C/c1ccc2cc[nH]c2c1 [Compound 157, (E)-N′-((1H-indol-6-yl)methylene)-2-(4-chloro-2,6-dimethylphenoxy)acetohydrazide] | 100%
25 | Cc1cc(C)c(SCC(=O)N/N=C/c2c[nH]c3ccccc23)c(C)c1 [Compound 158, (E)-N′-((1H-indol-3-yl)methylene)-2-(mesitylthio)acetohydrazide] | 100%
26 | Cc1cc(C)c(SCC(=O)N/N=C/c2ccc3cc[nH]c3c2)c(C)c1 [Compound 159, (E)-N′-((1H-indol-6-yl)methylene)-2-(mesitylthio)acetohydrazide] | 100%
27 | Cc1cc(C)c(OCC(=O)N(C)/N=C/c2cccc3c2ccn3C)c(C)c1 [Compound 164, (E)-2-(mesityloxy)-N-methyl-N′-((1-methyl-1H-indol-4-yl)methylene)acetohydrazide] | 100%
28 | Cc1cc(C)c(OCC(=O)N(CCO)/N=C/c2cccc3[nH]ccc23)c(C)c1 [Compound 177, (E)-N′-((1H-indol-4-yl)methylene)-N-(2-hydroxyethyl)-2-(mesityloxy)acetohydrazide] | 100%
29 | Cc1cc(C)c(OCC(=O)N/N=C/c2cccc3c2ccn3CCO)c(C)c1 [Compound 180, (E)-N′-((1-(2-hydroxyethyl)-1H-indol-4-yl)methylene)-2-(mesityloxy)acetohydrazide] | 90%
30 | Cc1cc(C)c(OCC(=O)N/N=C/c2cccc3[nH]ccc23)c(-c2cccnc2)c1 [Compound 182, (E)-N′-((1H-indol-4-yl)methylene)-2-(2,4-dimethyl-6-(pyridin-3-yl)phenoxy)acetohydrazide] | 100%
31 | Cc1cc(C)c(OCC(=O)N/N=C/c2ccc3cc[nH]c3c2)c(-c2cccnc2)c1 [Compound 183, (E)-N′-((1H-indol-6-yl)methylene)-2-(2,4-dimethyl-6-(pyridin-3-yl)phenoxy)acetohydrazide] | 100%
32 | Cc1cc(C)c(OCC(=O)N/N=C/c2ccc3[nH]ccc3c2)c(-c2cccnc2)c1 [Compound 184, (E)-N′-((1H-indol-5-yl)methylene)-2-(2,4-dimethyl-6-(pyridin-3-yl)phenoxy)acetohydrazide] | 100%
33 | Cc1ncccc1OCC(=O)N/N=C/c1cccc2[nH]ccc12 [Compound 187, (E)-N′-((1H-indol-4-yl)methylene)-2-((2-methylpyridin-3-yl)oxy)acetohydrazide] | 100%
